One may read the pEC50 as the negative decadic logarithm of the EC50, by convention in mol/L.

Our source for the ring closure, yield of all isomers and EC50 values is patent US9540393B2, “Inhibitors of human immunodeficiency virus replication” (priority 2013, dated 2017).

The conditions of series [1]: rcm bond, DCE.
The test system of another series is NL-RLuc virus. In words: Inhibition of HIV replication (NL-RLuc luciferase reporter virus in MT-2 cells). As to conditions: recombinant NL-Rluc virus infecting MT-2 cells, 5 days of incubation, luciferase readout; at least 2 experiments; serum condition not given (10% FBS, 15 mg/ml human serum albumin/10% FBS or 40% human serum/5% FBS). It is filed as cell-based, human immunodeficiency virus (HIV). (Reporter assays use an easily measured gene product as a stand-in for the process of interest.)

pEC50: −log10 of the molar value. Read-outs that look alike come from different tables or passages of the source.

In turn, `CCOC(=O)[C@@H](OC(C)(C)C)c1c(C)nc2cc3nn2c1N1CCC(C)(CC1)OCCCCOc1ccccc1CC(=O)CNC3=O` had a ring closure, yield of all isomers in series [1] (from C=CCOc1ccccc1CC(O)CNC(=O)c1cc2nc(C)c([C@H](OC(C)(C)C)C(=O)OCC)c(N3CCC(C)(OCC=C)CC3)n2n1, Hoveyda-Grubbs 2nd generation, 7.4 mM, 70.0 °C, 2.0 h, 3 steps) of 43.1%.

`Cc1nc2cc3nn2c(c1[C@H](OC(C)(C)C)C(=O)O)N1CCC(C)(CC1)OCCCCOc1ccccc1CC(O)CNC3=O` (single isomer, unassigned) [Example 21]: in the series on NL-RLuc virus, the pEC50 is 6.87.

In the case of `Cc1nc2cc3nn2c(c1[C@H](OC(C)(C)C)C(=O)O)-c1ccccc1C=CCOc1cc(F)ccc1CNC3=O`, the ring closure, yield of all isomers in series [1] (from C=CCOc1cc(F)ccc1CNC(=O)c1cc2nc(C)c([C@H](OC(C)(C)C)C(=O)OCC)c(-c3ccccc3C=C)n2n1, Hoveyda-Grubbs II, 37.0 mM, 83.0 °C, 16.0 h, 2 steps) came to 5%.

Turning to `Cc1nc2cc3nn2c(c1[C@H](OC(C)(C)C)C(=O)O)-c1ccc2c(c1Cl)N(CC=CCCc1ccccc1CNC3=O)CCO2`, in series [1] (from C=CCCc1ccccc1CNC(=O)c1cc2nc(C)c([C@H](OC(C)(C)C)C(=O)OCC)c(-c3ccc4c(c3Cl)N(CC=C)CCO4)n2n1, Hoveyda-Grubbs II, 32.0 mM, 83.0 °C, 3.0 h, 2 steps), the ring closure, yield of all isomers was determined as 14.8%.

For the compound `Cc1nc2cc3nn2c(c1[C@H](OC(C)(C)C)C(=O)O)-c1ccc2c(c1Cl)N(CC/C=C\Oc1cc(F)ccc1CNC3=O)CCO2` (single isomer, unassigned) [Example 5], the pEC50 in the series with NL-RLuc virus is 4.92.

Consider `Cc1nc2cc3nn2c(c1[C@H](OC(C)(C)C)C(=O)O)-c1ccc2c(c1Cl)N(C/C=C/COc1cc(F)ccc1CNC3=O)CCO2` (single isomer, unassigned) [Example 4], for which the pEC50 in the series on NL-RLuc virus was 5.84.

The compound `Cc1nc2cc3nn2c(c1[C@H](OC(C)(C)C)C(=O)O)-c1ccc2c(c1Cl)N(CC=CCOc1cc(F)ccc1CNC3=O)CCO2` showed a ring closure, yield of all isomers in series [1] (from C=CCOc1cc(F)ccc1CNC(=O)c1cc2nc(C)c([C@H](OC(C)(C)C)C(=O)OCC)c(-c3ccc4c(c3Cl)N(CC=C)CCO4)n2n1, Hoveyda-Grubbs II, 57.0 mM, 83.0 °C, 3.0 h, 2 steps) of 30.5%.

For `Cc1nc2cc3nn2c(c1[C@H](OC(C)(C)C)C(=O)O)N1CCC(C)(CC1)OCCCCOc1ccccc1CC(O)CNC3=O` (single isomer, unassigned) [Example 22], the pEC50 with NL-RLuc virus was 7.24.

With `Cc1nc2cc3nn2c(c1[C@H](OC(C)(C)C)C(=O)O)N1CCC(C)(CC1)OCCCCOc1ccccc1CC(O)CNC3=O` (some centres unmarked), the ring closure, yield of all isomers in series [1] (from C=CCOc1ccccc1CC(O)CNC(=O)c1cc2nc(C)c([C@H](OC(C)(C)C)C(=O)OCC)c(N3CCC(C)(OCC=C)CC3)n2n1, Hoveyda-Grubbs 2nd generation, 6.0 mM, 70.0 °C, 2.0 h, 3 steps) was 51.1%.

As to `Cc1nc2cc3nn2c(c1[C@H](OC(C)(C)C)C(=O)O)-c1ccc2c(c1Cl)N(CC/C=C\Oc1cc(F)ccc1CNC3=O)CCO2` (single isomer, unassigned) [Example 3], the negative logarithm of the EC50 (pEC50) in the series with NL-RLuc virus is 7.38.

As to `Cc1nc2cc3nn2c(c1[C@H](OC(C)(C)C)C(=O)O)-c1ccc2c(c1Cl)N(C/C=C/COc1cc(F)ccc1CNC3=O)CCO2` (single isomer, unassigned) [Example 2], the pEC50 with NL-RLuc virus was 7.51.
